ChEMBL document CHEMBL1201862, “PubChem BioAssay data set” (2004)
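Protocol summary: plate cells (96-well), add compound at 5 concentrations, incubate 48 h, interpolate endpoints linearly. GI50: concentration for 50% inhibition of growth.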 Active and inactive are the calls of the source. Rule as the data show it: active = GI50 up to about 1.1 µM and inactive = higher.

Legend:
Test in all cases: NCI anticancer screen, dose series, 48 h
UACC-62 = test system: UACC-62
M14 = test system: M14
NCI/ADR-RES = test system: NCI/ADR-RES
SNB-19 = test system: SNB-19
MDA-N = test system: MDA-N
SK-MEL-28 = test system: SK-MEL-28
A498 = test system: A498
K562 = test system: K562
HL-60 = test system: HL-60
RPMI-8226 = test system: RPMI-8226
CCRF-CEM = test system: CCRF-CEM
SK-OV-3 = test system: SK-OV-3
DU-145 = test system: DU-145
786-0 = test system: 786-0
SF-268 = test system: SF-268
HOP-92 = test system: HOP-92
SK-MEL-2 = test system: SK-MEL-2
LOX IMVI = test system: LOX IMVI
SR = test system: SR

| SMILES | GI50 (UACC-62) | GI50 (M14) | GI50 (NCI/ADR-RES) | GI50 (SNB-19) | GI50 (MDA-N) | GI50 (SK-MEL-28) | GI50 (A498) | GI50 (K562) | GI50 (HL-60) | GI50 (RPMI-8226) | GI50 (CCRF-CEM) | GI50 (SK-OV-3) | GI50 (DU-145) | GI50 (786-0) | GI50 (SF-268) | GI50 (HOP-92) | GI50 (SK-MEL-2) | GI50 (LOX IMVI) | GI50 (SR) |
| --- | --- | --- | --- | --- | --- | --- | --- | --- | --- | --- | --- | --- | --- | --- | --- | --- | --- | --- | --- |
| COC(=O)C(Cc1c(-c2[nH]c3ccccc3c2CC(NC(C)=O)C(=O)OC)[nH]c2ccccc12)NC(C)=O (stereo not drawn) | > 100 µM (inactive) | > 100 µM (inactive) | > 100 µM (inactive) | > 100 µM (inactive) | > 100 µM (inactive) | > 100 µM (inactive) | > 100 µM (inactive) | > 100 µM (inactive) | > 100 µM (inactive) | > 100 µM (inactive) | > 100 µM (inactive) | > 100 µM (inactive) | > 100 µM (inactive) | > 100 µM (inactive) | > 100 µM (inactive) | > 100 µM (inactive) | > 100 µM (inactive) | > 100 µM (inactive) |  |
| O=c1ccn(-c2ccccn2)c(=O)n1-c1ccccn1 |  | > 100 µM (inactive) | > 100 µM (inactive) | > 100 µM (inactive) | > 100 µM (inactive) | > 100 µM (inactive) | > 100 µM (inactive) | > 100 µM (inactive) | > 100 µM (inactive) | > 100 µM (inactive) | > 100 µM (inactive) | > 100 µM (inactive) | > 100 µM (inactive) | > 100 µM (inactive) | > 100 µM (inactive) | > 100 µM (inactive) | > 100 µM (inactive) | > 100 µM (inactive) |  |
| O=C(O)CCc1ccc2c(c1)C(=O)CC2 | > 100 µM (inactive) | > 100 µM (inactive) | > 100 µM (inactive) | > 100 µM (inactive) | > 100 µM (inactive) | > 100 µM (inactive) | > 100 µM (inactive) | > 100 µM (inactive) | > 100 µM (inactive) | > 100 µM (inactive) | > 100 µM (inactive) | > 100 µM (inactive) | > 100 µM (inactive) | > 100 µM (inactive) | > 100 µM (inactive) |  | > 100 µM (inactive) | > 100 µM (inactive) | > 100 µM (inactive) |
| Cc1cn(C2CC(N=[N+]=[N-])C(CO)O2)c(=O)n(CCCCO)c1=O (stereo not drawn) | > 100 µM (inactive) | > 100 µM (inactive) | > 100 µM (inactive) | > 100 µM (inactive) | > 100 µM (inactive) | > 100 µM (inactive) | > 100 µM (inactive) | > 100 µM (inactive) | > 100 µM (inactive) | > 100 µM (inactive) | > 100 µM (inactive) | > 100 µM (inactive) | > 100 µM (inactive) | > 100 µM (inactive) | > 100 µM (inactive) | > 100 µM (inactive) | > 100 µM (inactive) | > 100 µM (inactive) |  |
| O=C(O)C(Cc1cc(I)c(O)c(I)c1)C1CCCCC1 (stereo not drawn) | 33.1 µM (inactive) | 45.5 µM (inactive) | 37.4 µM (inactive) | 35.6 µM (inactive) | 43.5 µM (inactive) | 59.7 µM (inactive) | 21.3 µM (inactive) | 66.2 µM (inactive) |  |  | 51.1 µM (inactive) |  | 33 µM (inactive) | 51.9 µM (inactive) | 36.2 µM (inactive) | 33.5 µM (inactive) |  | 34 µM (inactive) | 33.1 µM (inactive) |
| COc1ccc2c(c1)CC[C@@H]1C2CC[C@]2(C)C(=C=CP(=O)(O)O)CCC12 (stereo partly drawn) | > 100 µM (inactive) | > 100 µM (inactive) | > 100 µM (inactive) | > 100 µM (inactive) | > 100 µM (inactive) | > 100 µM (inactive) | > 100 µM (inactive) | > 100 µM (inactive) |  | < 0.01 µM (active) |  | > 100 µM (inactive) | > 100 µM (inactive) | > 100 µM (inactive) | > 100 µM (inactive) | > 100 µM (inactive) | > 100 µM (inactive) | > 100 µM (inactive) | 99.5 µM (inactive) |
| COc1ccc(-c2nc(N3CCCC3)no2)cc1 | 31 µM (inactive) | 81.3 µM (inactive) | 44.5 µM (inactive) | 44.1 µM (inactive) | 67 µM (inactive) | > 100 µM (inactive) | 31.6 µM (inactive) | 60.3 µM (inactive) | 1.5 µM (inactive) | 32.7 µM (inactive) | 20.7 µM (inactive) | 58.9 µM (inactive) | 43.2 µM (inactive) | 36.3 µM (inactive) | 53 µM (inactive) | 48.4 µM (inactive) | 46.1 µM (inactive) | 33 µM (inactive) |  |
| CC1(C)OC[C@@]2([C@@H]3CC[C@@H](C3)C2(C)C)N1O | > 100 µM (inactive) | > 100 µM (inactive) | > 100 µM (inactive) | > 100 µM (inactive) | > 100 µM (inactive) | 46.9 µM (inactive) | > 100 µM (inactive) | > 100 µM (inactive) | > 100 µM (inactive) | 79.4 µM (inactive) | > 100 µM (inactive) | > 100 µM (inactive) | > 100 µM (inactive) | > 100 µM (inactive) | > 100 µM (inactive) | 27.4 µM (inactive) | > 100 µM (inactive) | 92 µM (inactive) |  |
| CSc1c(C#N)c(S)n(-c2ccc(Cl)cc2)c(=O)c1C#N | 51.2 µM (inactive) | > 100 µM (inactive) | 39.8 µM (inactive) | > 100 µM (inactive) | > 100 µM (inactive) | > 100 µM (inactive) | > 100 µM (inactive) | 63 µM (inactive) | 52.5 µM (inactive) | 38.7 µM (inactive) | 32.5 µM (inactive) | > 100 µM (inactive) | > 100 µM (inactive) | > 100 µM (inactive) | > 100 µM (inactive) |  | > 100 µM (inactive) | > 100 µM (inactive) | 33 µM (inactive) |
| c1csc(-c2ccc(-c3cccc4nsnc34)s2)c1 | > 100 µM (inactive) | > 100 µM (inactive) | > 100 µM (inactive) | > 100 µM (inactive) | 40.4 µM (inactive) | > 100 µM (inactive) | > 100 µM (inactive) | 32 µM (inactive) |  | 85.3 µM (inactive) | 20.2 µM (inactive) | > 100 µM (inactive) | > 100 µM (inactive) | 39.5 µM (inactive) | > 100 µM (inactive) |  | > 100 µM (inactive) | > 100 µM (inactive) | 13 µM (inactive) |
| C=C1[C@H]2O[C@H]2[C@@H](OC(C)=O)[C@@]2(C)[C@@H](OC(C)=O)C[C@@H](OC(=O)CCC)[C@@](C)(O)[C@@H]2[C@@H](OC(C)=O)[C@]2(O)[C@@H](C)C(=O)O[C@H]2[C@H]1Cl | > 100 µM (inactive) | > 100 µM (inactive) | > 100 µM (inactive) | > 100 µM (inactive) | > 100 µM (inactive) | > 100 µM (inactive) | > 100 µM (inactive) | > 100 µM (inactive) | > 100 µM (inactive) | > 100 µM (inactive) | > 10 µM (inactive) |  | > 100 µM (inactive) | > 100 µM (inactive) | > 100 µM (inactive) | > 100 µM (inactive) | > 100 µM (inactive) |  |  |
| COc1cc2c(cc1OCCCCCCCCCCN1C(=O)c3cccc4cccc(c34)C1=O)N=C[C@@H]1CCCN1C2=O | 12.2 µM (inactive) | 13.7 µM (inactive) | 2.64 µM (inactive) | 13.7 µM (inactive) | 7.55 µM (inactive) | 12.3 µM (inactive) |  | 5.26 µM (inactive) | 4.27 µM (inactive) | 1.82 µM (inactive) | 1.94 µM (inactive) | 6.68 µM (inactive) | 13.2 µM (inactive) | 9.06 µM (inactive) | 8.51 µM (inactive) |  | 3.74 µM (inactive) | 2.14 µM (inactive) | 0.902 µM (active) |
| FC(F)(F)c1cnc(N/N=C(/c2ccccc2)c2ccccn2)c(Cl)c1 | 8.75 µM (inactive) | 3.78 µM (inactive) | 2.78 µM (inactive) | 9.33 µM (inactive) | 23.8 µM (inactive) | 11.4 µM (inactive) |  | 4.03 µM (inactive) |  | 2.97 µM (inactive) | 2.4 µM (inactive) | 4.76 µM (inactive) | 6.64 µM (inactive) | 4.12 µM (inactive) | 4.85 µM (inactive) | 8.75 µM (inactive) | 8.18 µM (inactive) |  | 2.76 µM (inactive) |
| O=c1c2ccccc2nc2sc(/N=C/C=C/c3ccccc3)nn12 | > 100 µM (inactive) | > 100 µM (inactive) | > 100 µM (inactive) | > 100 µM (inactive) | > 100 µM (inactive) | > 100 µM (inactive) | > 100 µM (inactive) | > 100 µM (inactive) |  | > 100 µM (inactive) | 55.5 µM (inactive) | > 100 µM (inactive) | > 100 µM (inactive) | > 100 µM (inactive) | > 100 µM (inactive) | > 100 µM (inactive) | > 100 µM (inactive) | 56.9 µM (inactive) | > 100 µM (inactive) |
| Cc1ncc(COP(=O)(O)O)c(/C=C2\SC(=S)NC2=O)c1O | > 100 µM (inactive) | > 100 µM (inactive) | > 100 µM (inactive) | > 100 µM (inactive) | > 100 µM (inactive) | > 100 µM (inactive) | > 100 µM (inactive) | > 85.7 µM (inactive) |  | > 100 µM (inactive) |  | > 100 µM (inactive) | > 100 µM (inactive) | > 100 µM (inactive) | > 100 µM (inactive) | > 74.5 µM (inactive) | > 100 µM (inactive) | > 100 µM (inactive) | > 100 µM (inactive) |
